Experimental data published in article PMC5085647.

Key:
[1] = tested on: Beclin-1 and LC3-II in U2OS cells; assay: Autophagy markers Beclin-1 and LC3-I/LC3-II (Western blot); type: cell-based, human; conditions: Quercetin for 2 h and overnight
Protocol: For Western blotting analysis, protein aliquots (30 µg/lane) were run on SDS-PAGE (8% or 12.5%) and then electroblotted onto PVDF membranes (ImmobilonTM, Millipore, Milan, Italy). Membranes were next incubated with the specific primary antibodies (1 h at room temperature) and then incubated with the appropriate dilution of secondary antibodies (1 h at room temperature). Immunocomplexes were visualized by enhanced chemiluminescence and autoradiography according to the manufacturer protocol (Santa Cruz Biotechnology) and quantified by densitometric analysis with Image J software (NIH, Bethesda, […], USA), using the β-actin and Vinculin levels as loading control for normalization.
Figure S3. […] (A, left panel)
U2OS cells were treated with DMSO (C) or SsCEI 4 (50 and 100 µM) for 72 h. Then, cell lysates were […]
harvested and subjected to immunoblotting for Beclin-1; (A, right panel) Results of densitometry of […]
Beclin-1 bands are expressed as the mean of relationships between densitometries of Beclin-1 and […]
β-actin bands, used as loading control; (B) U2OS cells were treated with DMSO (C) or SsCEI 4 (50 […]
and 100 µM) for 72 h, and cell lysates were used to analyze LC3-II conversion by immunoblotting […]
using the specific antibody against LC3, which is able to recognize both the upper LC3-I band and […]
the lower LC3-II. […]

porcine liver APEH = target: T1, porcine liver APEH (Sus scrofa, UniProt P19205); assay: APEH inhibition in cell-free assay (Ac-Ala-pNA substrate); type: biochemical; conditions: Figure S1A
T1 sequence (P19205 1-732): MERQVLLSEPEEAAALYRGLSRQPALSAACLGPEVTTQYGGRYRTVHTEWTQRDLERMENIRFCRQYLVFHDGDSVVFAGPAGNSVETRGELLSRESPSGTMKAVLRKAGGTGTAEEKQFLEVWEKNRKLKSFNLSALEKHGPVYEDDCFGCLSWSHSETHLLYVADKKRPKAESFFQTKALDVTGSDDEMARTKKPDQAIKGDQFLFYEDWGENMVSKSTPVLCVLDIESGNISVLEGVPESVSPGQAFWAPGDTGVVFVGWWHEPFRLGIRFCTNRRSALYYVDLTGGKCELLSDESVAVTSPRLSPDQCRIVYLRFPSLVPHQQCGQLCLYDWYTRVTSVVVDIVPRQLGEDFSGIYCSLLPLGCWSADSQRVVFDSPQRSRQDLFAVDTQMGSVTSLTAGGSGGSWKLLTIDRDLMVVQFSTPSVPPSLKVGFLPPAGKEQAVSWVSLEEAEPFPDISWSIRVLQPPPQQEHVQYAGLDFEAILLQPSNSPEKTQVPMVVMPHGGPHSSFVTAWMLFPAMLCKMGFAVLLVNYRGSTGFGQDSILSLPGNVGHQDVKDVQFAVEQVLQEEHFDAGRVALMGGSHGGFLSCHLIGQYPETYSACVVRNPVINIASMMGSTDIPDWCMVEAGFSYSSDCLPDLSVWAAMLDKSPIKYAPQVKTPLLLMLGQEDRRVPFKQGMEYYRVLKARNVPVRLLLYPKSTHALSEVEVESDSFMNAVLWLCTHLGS

U2OS cells = assay: LDH release cytotoxicity assay; type: cell-based, human; conditions: BTZ 10 nM, positive control, n = 3
Protocol: The release of LDH (Lactate dehydrogenase) was used as a marker for cell toxicity. After treatment with 50 and 100 µM SsCEI 4 for 24 h, cleared supernatants were incubated with reaction buffer for 30 min at room temperature according to the manufacturer instructions (ab65393, LDH-Cytotoxicity Assay Kit II). Absorbance was measured at 490 nm and the cytotoxicity percentage was calculated as: [(Absorbancetest sample − Absorbancelow control)/(Absorbancehigh control − Absorbancelow control) × 100].

Row | Effect toward APEH activity (porcine liver APEH) | Structure (SMILES) | Beclin-1 and LC3-II levels (autophagy), positive control [1] | Cytotoxicity (LDH release in culture medium) (U2OS cells)
1 |  | O=c1c(O)c(-c2ccc(O)c(O)c2)oc2cc(O)cc(O)c12 [Quercetin] | strongly induced | 
2 | completely ineffective | CC(C)C[C@H](NC(=O)[C@H](Cc1ccccc1)NC(=O)c1cnccn1)B(O)O [Bortezomib] |  | exceeding 200%
